The results in this text go back to patent US7432045B2 (priority 2003, dated 2008).

SMILES strings stand for the structures. pIC50: −log10 of the molar value. Like-named read-outs stand apart in the source and are kept apart here. Peptide text beside a SMILES is read from it.

What is called pIC50 is −log10 of the IC50, conventionally taken in molar units.

One data set deals with HSV-1 KOS mutant hrR3. The data set can be described thus: LacZ+ virus (hrR3) entry assay with pre-adsorbed virus (entry block). Format: cell-based.
For data set [1], the system named is Influenza virus strain PR8. Also on record: species or system mice. The following applies: mouse, in vivo.
A further data set deals with hrR3 virions. The data set is described as follows: Trypsinization of peptide-treated virions. The following applies: for pIC50: 1 h at 37° C. Format: cell-based, HSV-1.
The next data set addresses T1, trypsin (Sus scrofa, UniProt P00761).
T1 construct: purchased BioWhittaker 17-160E
The data set is described as follows: Trypsinization of peptides. Particulars: 0.005 or 0.01% trypsin, 1 h at 37° C. As for the experimental part: Trypsinization of peptides: Peptides dissolved in serum-free DMEM were exposed to 0.005 or 0.01% trypsin for 1 h at 37° C. The trypsin was then inactivated with a 1.3-fold molar excess of soybean trypsin inhibitor and the ability of the peptides to inactivate virions was tested as described above (centrifugation assay). In controls, trypsin was inactivated before it was added to the peptides.
In Panel B, peptides in serum-free medium were pre-treated with active trypsin (open bars) or inactivated trypsin (shaded bars) for 1 h at 37° C. before they were added to virions for 1 h at 37° C. (see Example 1). The treated virions were then pelleted and resuspended in serum-supplemented medium and assayed for infectivity without further trypsinization. The peptide concentrations were as high or higher than those used in Panel A: […] TAT-C, 50 μM bKLA, 200 μM EB and bHOM-9. Trypsin concentrations used in both Panels A and B, were 0.005% (for bKLA, EB and bHOM-9) or 0.01% (for TAT-C and the ‘no peptide’ control).

Data set [2] deals with Vero, HeLa, CV-1PD, TM-1, DP-9, CEMx174, NIKS, W12E cells. The data set is described as follows: MTS assay, eight cell lines. Particulars: for cytotoxicity to cells (MTS), overall: eight cell lines.

T1 sequence (P00761 9-231): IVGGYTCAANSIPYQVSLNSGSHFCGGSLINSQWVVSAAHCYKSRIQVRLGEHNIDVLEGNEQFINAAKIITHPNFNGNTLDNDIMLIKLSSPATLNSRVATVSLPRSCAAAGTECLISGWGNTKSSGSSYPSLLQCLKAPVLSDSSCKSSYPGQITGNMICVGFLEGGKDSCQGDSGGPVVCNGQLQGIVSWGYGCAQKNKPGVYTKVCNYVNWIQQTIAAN

Take `CC(C)C[C@H](NC(=O)[C@H](C)NC(=O)[C@H](CC(C)C)NC(=O)[C@H](CC(C)C)NC(=O)[C@@H](NC(=O)[C@H](C)NC(=O)[C@@H]1CCCN1C(=O)[C@H](CC(C)C)NC(=O)[C@H](CC(C)C)NC(=O)[C@H](C)NC(=O)[C@@H](NC(=O)[C@H](C)NC(=O)[C@H](C)NC(=O)[C@H](CCCCN)NC(=O)[C@H](CCCCN)NC(=O)[C@H](CCCNC(=N)N)NC(=O)[C@@H](N)CCCNC(=N)N)C(C)C)C(C)C)C(=O)N[C@@H](CC(C)C)C(=O)N[C@@H](C)C(=O)N1CCC[C@H]1C(=O)O` [EB] (H-RRKKAAVALLPAVLLALLAP-OH): the “reduction of the number of lacZ+ cells” value in the data set on HSV-1 KOS mutant hrR3 (25 μM peptide, pre-adsorbed virus) was more than 90%. Moreover, the virus entry inhibited in the data set on HSV-1 KOS mutant hrR3 (50 μM, 1 hour periods between 1 and 4 hours post-infection) is on record as 70-80%. The pIC50 is 4.82 with HSV-1 KOS mutant hrR3 (FIG. 7B, read-out: inhibition of entry of pre-adsorbed virus IC50); 4.59 to 4.82 in the data set with HSV-1 KOS mutant hrR3 (read-out: Entry Blocking Activity IC50); 5.64 with hrR3 (read-out: IC50 for rendering cells resistant to subsequent viral infection in the absence of peptide, cells exposed 1 h at 37° C., peptide rinsed off); less than 4.00 with hrR3 (read-out: IC50 of cellular resistance after 8.5 h in peptide-free medium, 8.5 h after first exposure); 5.40 with hrR3 (read-out: IC50 of cellular resistance, first exposure, infected immediately after 1 h exposure); 5.60 with hrR3 (read-out: IC50 of cellular resistance, second exposure, second exposure 8.5 h after the first). For the same molecule, in data set [1], the mice protected was found to be 90%. The “effect of trypsin on infectivity of peptide-treated virions” value in the data set on hrR3 virions is listed as “did not have any effect”. On trypsin, the “effect of trypsinization of the peptide on its antiviral activity” value was “completely abolished their antiviral activity”. The “time needed to induce cellular resistance” value in the data set on hrR3 (30 μM peptide, 37° C.) is “almost instantaneously”. In addition, the “reversibility of resistance induced at 4° C. by rinsing with 0.5 M NaCl” value in the data set with hrR3 (induced at 4° C.) was “only partially reversible”. In addition, the “reversibility of resistance induced at 37° C. by rinsing with 0.5 M NaCl” value in the data set with hrR3 (induced at 37° C.) is reported as “completely irreversible”. Further, in data set [2], the “cytotoxicity to cells (MTS), overall” value was “generally not cytotoxic”.
On to `N=C(N)NCCC[C@H](NC(=O)CN)C(=O)N[C@@H](CCCCN)C(=O)N[C@@H](CCCCN)C(=O)N[C@@H](CCCNC(=N)N)C(=O)N[C@@H](CCCNC(=N)N)C(=O)N[C@@H](CCC(N)=O)C(=O)N[C@@H](CCCNC(=N)N)C(=O)N[C@@H](CCCNC(=N)N)C(=O)N[C@@H](CCCNC(=N)N)C(=O)N[C@@H](CS)C(=O)O` [TAT-C, NH2-GRKKRRQRRRC-COOH], for which the pIC50 is 5.52 in the data set on HSV-1 KOS mutant hrR3 (33° C., read-out: Entry Block 33° C. IC50); 5.52 in the data set on HSV-1 KOS mutant hrR3 (33° C., read-out: Entry Block IC50); 5.52 in the data set with HSV-1 KOS mutant hrR3 (33° C., read-out: inhibition of entry IC50); 5.51 in the data set with HSV-1 KOS mutant hrR3 (37° C., read-out: Entry Block 37° C. IC50); 4.07 with hrR3 virions (read-out: IC50 after exposure of treated virus to 0.01% active trypsin); 4.05 in the data set with hrR3 virions (read-out: IC50 after exposure of treated virus to inactivated trypsin). In the data set on HSV-1 KOS mutant hrR3 (FIGS. 16A, B), the “temperature dependence of inhibition of entry and virus inactivation” value is given as “completely temperature-independent”. In data set [1], this molecule yielded a mice protected of 90%. Besides, in the data set with hrR3 virions, the “effect of trypsin on infectivity of peptide-treated virions” value was “no effect on virus infectivity”. In addition, the “effect of trypsinization of the peptide on its antiviral activity” value at trypsin was “completely abolished their antiviral activity”. Further, the “inhibition after rinsing with 0.5 M NaCl” value in the data set with hrR3 (30 μM peptide 1 h at 4° C.) was “completely reversed”. Also, the infection blocked in the data set on hrR3 (30 μM peptide 1 h at 4° C., rinsed with culture medium alone) is 50%. In addition, in data set [2] (all cell lines tested), the “concentration at which not toxic (MTS)” value was more than 400 µM. Further, the “cytotoxicity to cells (MTS), overall” value in data set [2] is recorded as “generally not cytotoxic”.
